Assays:
Bradykinin-1 receptor [1] = biological target: T1, Bradykinin-1 receptor (Homo sapiens (Human), UniProt P46663); assay: Receptor binding assay (B1R Binding Assay), [3H]-Kallidin (Des Arg10, Leu9) displacement; conditions: membranes from CHO-K1 cells overexpressing Bradykinin-1 receptor; 6 nM radioligand
Method: Binding assays were done with membranes from CHO-K1 cells overexpressing Bradykinin-1 receptor.
To determine non-specific binding 10 μM Lys-(Des-Arg^9)-Bradykinin (Bachem) was added. Membranes were harvested through GF/B (glass fiber filter; PerkinElmer) plates, equilibrated with 0.5% polyethylenimine, air dried at 50° C. for 2 h. Radioactivity was determined by counting in a topcounter (NXT Packard).

Bradykinin-1 receptor [2] = biological target: T1, Bradykinin-1 receptor; assay: Calcium mobilization assay (FLIPR, Fluo-4) in GeneBLAzer Bradykinin (B1)-NFAT-bla CHO-K1 cells; format: cell-based; conditions: antagonist activity; CHO-K1 cells stably overexpressing the human bradykinin 1 receptor; read-out: Ca mobilization Assay IC50

T1 sequence (P46663 whole entry): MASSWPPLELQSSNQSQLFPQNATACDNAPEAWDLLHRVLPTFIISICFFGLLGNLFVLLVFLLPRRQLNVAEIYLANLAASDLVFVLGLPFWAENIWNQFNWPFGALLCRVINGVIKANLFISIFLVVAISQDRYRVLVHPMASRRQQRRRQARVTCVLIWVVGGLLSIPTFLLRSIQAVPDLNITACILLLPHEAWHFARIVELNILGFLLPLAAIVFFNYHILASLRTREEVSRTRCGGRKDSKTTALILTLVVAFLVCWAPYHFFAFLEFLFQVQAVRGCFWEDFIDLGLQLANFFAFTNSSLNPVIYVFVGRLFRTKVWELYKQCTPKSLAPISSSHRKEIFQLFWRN

Compound | Ki (Bradykinin-1 receptor [1]) | IC50 (Bradykinin-1 receptor [2])
COC(=O)c1c(Cl)cccc1-c1ccc2c(c1)CCCC2NC(=O)C1(NC(=O)C(F)(F)F)CC1 (racemic) [Example 10, (rac)-2-Chloro-6-(5-{[1-(2,2,2-trifluoro-acetylamino)-cyclopropanecarbonyl]-amino}-5,6,7,8-tetrahydro-naphthalen-2-yl)-benzoic acid methyl ester] | 522 nM | 118 nM
Cc1nc(-c2c(F)cc(Cl)cc2-c2ccc3c(c2)SCC3NC(=O)C2(NC(=O)C(F)(F)F)CC2)no1 (racemic) [Example 21, 1-(2,2,2-Trifluoro-acetylamino)-cyclopropanecarboxylic acid{(rac)-6-[5-chloro-3-fluoro-2-(5-methyl-[1,2,4]oxadiazol-3-yl)-phenyl]-2,3-dihydro-benzo[b]thiophen-3-yl}-amide] | 9.5 nM | 2.3 nM
Cc1nc(-c2c(F)cc(Cl)cc2-c2ccc3c(c2)OCC3NC(=O)C2(N)CC2)no1 (racemic) [Example 45, 1-Amino-cyclopropanecarboxylic acid{(rac)-6-[5-chloro-3-fluoro-2-(5-methyl-[1,2,4]oxadiazol-3-yl)-phenyl]-2,3-dihydro-benzofuran-3-yl}-amide] | 1530 nM | 701 nM

Continued, values first:

Ki (Bradykinin-1 receptor [1]) | IC50 (Bradykinin-1 receptor [2]) | Compound
3.6 nM | 0.4 nM | COc1cc(C(=O)NC2(C(=O)N[C@H]3CCc4cc(-c5cc(Cl)cc(F)c5-c5noc(C)n5)ccc43)COC2)on1 [Example 53, 3-Methoxy-isoxazole-5-carboxylic acid (3-{(S)-5-[5-chloro-3-fluoro-2-(5-methyl-[1,2,4]oxadiazol-3-yl)-phenyl]-indan-1-ylcarbamoyl}-oxetan-3-yl)-amide]
4.4 nM | 0.2 nM | COc1cc(C(=O)NC2(C(=O)NC3CSc4cc(-c5cc(Cl)cc(F)c5-c5nnn(C)n5)ccc43)CC2)on1 (racemic) [Example 65, 3-Methoxy-isoxazole-5-carboxylic acid(1-{(rac)-6-[5-chloro-3-fluoro-2-(2-methyl-2H-tetrazol-5-yl)-phenyl]-2,3-dihydro-benzo[b]thiophen-3-ylcarbamoyl}-cyclopropyl)-amide]
25.7 nM | 4.3 nM | Cc1cc(C(=O)NC2(C(=O)N[C@H]3CCc4cc(-c5cc(Cl)cc(F)c5-c5noc(C)n5)ccc43)COC2)on1 [Example 52, 3-Methyl-isoxazole-5-carboxylic acid (3-{(S)-5-[5-chloro-3-fluoro-2-(5-methyl-[1,2,4]oxadiazol-3-yl)-phenyl]-indan-1-ylcarbamoyl}-oxetan-3-yl)-amide]

Source: patent publication US8592426B2, “Aryl-benzocycloalkyl amide derivatives” (Hoffmann—La Roche Inc., priority 2011, dated 2013)
